Where two headings read alike, the source gives them in different places.
Assays:
WI-38 cells [1] = experiment: Long-term effects on cell viability (5 days, ATP; morphology, PI imaging); format: cell-based; conditions: 10 μM; for O = Potential toxicity / Q = Potential toxicity: human, 5 days;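 as to Luminescence signal for ATP measurement, day-2 Average: compounds at 10 µM with ATP read daily over 5 days of treatment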;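 as to Luminescence signal for ATP measurement, day-3 Average: compounds at 10 µM with ATP read daily over 5 days of treatment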;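 as to Luminescence signal for ATP measurement, day-4 Average: compounds at 10 µM with ATP read daily over 5 days of treatment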;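 as to Luminescence signal for ATP measurement, day-5 Average: compounds at 10 µM with ATP read daily over 5 days of treatment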
[2] = system: phosphorylated γH2A.X and TP53BP1; experiment: DNA damage marker analysis (immuno-staining); conditions: for activity at 10 µM: Homo sapiens, WI-38, 24 h; for P = Potential DNA-damaging / R = Potential DNA damaging: human, 24 h
Summary of the method: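 WI-38 cells were cultured 24 h, then treated with compounds for 24 h; H2O2 (700 μM, 3 h) and doxorubicin (300 nM, 24 h) served as DNA-damage controls. After fixation, cells were immunostained for phospho-γH2A.X (Ser-139) and phospho-TP53BP1 (Ser-1778), counterstained with DAPI, and imaged by automated high-content microscopy.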

[3] = Summary score for characterization of 38 core set hits; conditions: for D = Triple resistant: 2-point score, multiplex resistance (cadmium, MMS, H2O2); for S = Sum of Negative scores: human; for C = H2O2- & Cd-resistant: score, resistance to both H2O2 and cadmium
Summary of the method: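 Scoring awards 2 points per prominent longevity phenotype: resistance to multiple stresses, activation of FOXO3 and/or NRF2, reduced mTOR. Molecules with apparent DNA-damaging activity or cell toxicity in cultured human cells receive a negative point.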

[4] = system: human dermal fibroblast (HDF) primary cells; experiment: H2O2-resistance in primary human dermal fibroblasts; format: cell-based; conditions: for fold induction at 10 µM: Homo sapiens; for Assay 6: H2O2-resistant, at 10 uM, human dermal fibroblast (HDF) primary cells: YES/NO
WI-38 cells [5] = experiment: Propidium iodide (PI) cell-death imaging upon H2O2 stress; format: cell-based, human; conditions: for Assay 7: H2O2-resistant, at 10 uM, validated by propidium iodide (PI) cell-death imaging: w/H2O2, 3 hrs/4 hrs/5 hrs, YES/NO; for cytotoxicity at 10 µM: Homo sapiens, WI-38
LC3A/B puncta = experiment: Autophagy induction analysis (LC3A/B puncta immuno-staining); format: cell-based, human
Summary of the method: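 WI-38 cells were treated with compounds for 24 hrs, then immunostained for LC3A/B (overnight, 4° C) with DAPI counterstain and imaged by high-content microscopy. Experiment 1 used total puncta intensity. Experiment 2 used LAMP2-colocalized (lysosomal) puncta. Intensity was normalized to nuclei count.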

[6] = read-out: Experiment 1, H2A.X-P DNA damage foci staining (no H2O2 stress treatment), at 10 uM
[7] = read-out: Experiment 2, H2A.X-P DNA damage foci staining (no H2O2 stress treatment), at 10 uM
[8] = read-out: Experiment 2, H2A.X-P DNA damage foci staining (under H2O2 stress treatment), at 10 uM
[9] = read-out: Experiment 2, TP53BP1-P DNA damage foci staining (no H2O2 stress treatment), at 10 uM
[10] = read-out: Experiment 2, TP53BP1-P DNA damage foci staining (under H2O2 stress treatment), at 10 uM
[11] = Experiment 1, HDF cells, read-out: Experiment 1, HDF cells (under H2O2 stress treatment), at 10 uM (fold change)
[12] = Experiment 2, HDF cells, read-out: Experiment 2, HDF cells (under H2O2 stress treatment), at 10 uM (fold change)
[13] = H2O2 3 hrs, 10 uM, n = 6, negative control 5.44% ± 0.79%, read-out: Percentage of propidium iodide-positive dead cells (under H2O2 stress treatment), 3 hrs
[14] = H2O2 4 hrs, 10 uM, n = 6, negative control 16.81% ± 1.42%, read-out: Percentage of propidium iodide-positive dead cells (under H2O2 stress treatment), 4 hrs
[15] = pre-treatment at 10 uM, 3.5 hours of H2O2, DMSO control 27.4% ± 6.5%, */**/*** = reduced by one/two/three standard deviations, read-out: Percentage of propidium iodide-positive dead cells (under H2O2 stress treatment), at 10 uM

| Structure (SMILES) | O = Potential toxicity (WI-38 cells [1]) | Q = Potential toxicity (WI-38 cells [1]) | activity at 10 µM [2, 6] [%] | activity at 10 µM [2, 7] [%] | activity at 10 µM [2, 8] [%] | activity at 10 µM [2, 9] [%] | activity at 10 µM [2, 10] [%] | P = Potential DNA-damaging [2] | R = Potential DNA damaging [2] | D = Triple resistant [3] | S = Sum of Negative scores [3] | C = H2O2- & Cd-resistant [3] | fold induction at 10 µM [4, 11] | fold induction at 10 µM [4, 12] | Assay 6: H2O2-resistant, at 10 uM, human dermal fibroblast (HDF) primary cells [4] | Assay 7: H2O2-resistant, at 10 uM, validated by propidium iodide (PI) cell-death imaging (WI-38 cells [5]; 10 uM) | cytotoxicity at 10 µM (WI-38 cells [5]; [13]) [%] | cytotoxicity at 10 µM (WI-38 cells [5]; [14]) [%] | cytotoxicity at 10 µM (WI-38 cells [5]; [15]) [%] | H = Potential Autophagy Induction (LC3A/B puncta; score) | further results |
| --- | --- | --- | --- | --- | --- | --- | --- | --- | --- | --- | --- | --- | --- | --- | --- | --- | --- | --- | --- | --- | --- |
| CC1C(=O)C(C)C(c2cc(Cl)ccc2O)NC1c1cc(Cl)ccc1O (stereo not shown) [O6] | 0 | 0 | 122 | 87.7 | 130 | 86.3 | 538 | 0 | 0 | 0 | 0 | 1 | 285 | 22.2 | YES | YES | 0.8 | 4.92 | 16.8 | 0 | cytotoxicity at 10 µM (WI-38 cells [5]; H2O2 5 hrs, 10 uM, n = 6, negative control 22.50% ± 1.53%, read-out: Percentage of propidium iodide-positive dead cells (under H2O2 stress treatment), 5 hrs): 9.82%; H = Potential Autophagy Induction (LC3A/B puncta; summary score): 0 |
| O=C(Nc1nc(C23CC4CC(CC(C4)C2)C3)cs1)C(c1ccccc1)c1ccccc1 [O10] | 0 | 0 | 102 | 71.5 | 153 | 135 | 498 | 0 | 0 | 0 | 0 | 1 | 12.6 | 8.91 | YES | YES | 2.19 | 4.27 | 3.6 | 0 | Luminescence signal for ATP measurement, day-1 Average (WI-38 cells [1]; Batch 1, day-1, n = 6, day-0 luminescence = 320956 ± 24708): 560153; Luminescence signal for ATP measurement, day-2 Average (WI-38 cells [1]; Batch 1, day-2, n = 6, day-0 luminescence = 320956 ± 24708): 740923; Luminescence signal for ATP measurement, day-3 Average (WI-38 cells [1]; Batch 1, day-3, n = 6, day-0 luminescence = 320956 ± 24708): 847945; Luminescence signal for ATP measurement, day-4 Average (WI-38 cells [1]; Batch 1, day-4, n = 6, day-0 luminescence = 320956 ± 24708): 1079863; Luminescence signal for ATP measurement, day-5 Average (WI-38 cells [1]; Batch 1, day-5, n = 6, day-0 luminescence = 320956 ± 24708): 1066130; viability at 10 µM (WI-38 cells [1]; Homo sapiens, WI-38, 120 h, Batch 1, day-5, DMSO ctrl = 100.0%, read-out: ATP luminescence by day-5 normalized): 104%; H = Potential Autophagy Induction (LC3A/B puncta; summary score): 0 |

— patent US11413278B2, “Compounds and methods for promoting stress resistance” (priority 2015, dated 2022)
